SMILES strings stand for the structures.

Data set [1] has as its target T1, human PAR-2 (hPAR-2) receptor expressed in HEK-293 T cells in an endogenous manner (Homo sapiens, UniProt P55085).
T1 construct: human PAR-2 (hPAR-2) receptor expressed in HEK-293 T cells in an endogenous manner; endogenous in cells; host or cells: HEK-293 T cells
T1 sequence (P55085 26-397): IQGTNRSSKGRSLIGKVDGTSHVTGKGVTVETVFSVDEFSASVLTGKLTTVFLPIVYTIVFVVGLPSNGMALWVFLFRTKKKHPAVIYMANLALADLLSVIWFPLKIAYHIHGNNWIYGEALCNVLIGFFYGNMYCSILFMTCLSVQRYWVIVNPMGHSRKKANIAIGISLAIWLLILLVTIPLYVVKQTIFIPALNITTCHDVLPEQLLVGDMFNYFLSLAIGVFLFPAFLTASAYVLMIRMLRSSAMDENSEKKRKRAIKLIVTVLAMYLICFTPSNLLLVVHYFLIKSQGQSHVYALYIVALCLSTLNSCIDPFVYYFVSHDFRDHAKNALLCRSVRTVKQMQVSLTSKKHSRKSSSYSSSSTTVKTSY
As to the kind of experiment: In vitro human PAR-2 functional antagonist activity using calcium assays (Fluo4AM, FLIPR Tetra). It counts as cell-based. To be noted: HEK-293 T cells stimulated by an EC80 of the 2-Furoyl-LIGRLO-NH2 peptide after 10 min incubation with compound; 20 concentrations, duplicate, two independent experiments. An outline of the steps: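 Antagonist activity was taken as the decrease in the calcium response to an EC80 of 2-Furoyl-LIGRLO-NH2, measured over 5 min. The agonist was added after a 10 min compound-alone step on the same plate. The HEK-293 T cells express PAR-2 endogenously and were loaded with 1 μM Fluo4AM. Signals were referenced to buffer and EC80-alone controls.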

Turning to `COc1ccc(-n2nc(CC(C)C)c3nc(C(=O)N4CCNC(=O)C4(C)C)ccc32)cc1` [Example 93, 4-(3-isobutyl-1-(4-methoxyphenyl)-1H-pyrazolo[4,3-b]pyridine-5-carbonyl)-3,3-dimethylpiperazin-2-one], the melting point (in general, the temperature, or range, at which the solid turns liquid) lay in the range of 182 to 185 °C. For the same compound, the IC50 (usually the point on the concentration scale where inhibition reaches its midpoint) in data set [1] is over 10 µM.

Consider `CC(C)Cn1cc(C2=CCOCC2)c2ccc(C(=O)N3CCNC(=O)C3(C)C)nc21` [Example 45, 4-(3-(3,6-dihydro-2H-pyran-4-yl)-1-isobutyl-1H-pyrrolo[2,3-b]pyridine-6-carbonyl)-3,3-dimethylpiperazin-2-one], for which the melting point was in the range of 225 to 230 °C. Moreover, the IC50 in data set [1] was over 10 µM.

For `Cc1ccc(-c2cn(CC(C)C)c3nc(C(=O)N4CCNC(=O)C4(C)C)ccc23)cc1` [Example 51, 4-[1-isobutyl-3-(p-tolyl)pyrrolo[2,3-b]pyridine-6-carbonyl]-3,3-dimethyl-piperazin-2-one], the melting point fell in the range of 207 to 212 °C. In addition, the IC50 in data set [1] fell in the range of 0.02 to 10 µM.

With `CC(C)Cn1cc(-c2cc(F)cc(F)c2)c2ccc(C(=O)N3CCNC(=O)C3(C)C)nc21` [Example 108, 4-(3-(3,5-difluorophenyl)-1-isobutyl-1H-pyrrolo[2,3-b]pyridine-6-carbonyl)-3,3-dimethylpiperazin-2-one], the melting point fell in the range of 165 to 170 °C. Further, in data set [1], the IC50 fell in the range of 0.02 to 10 µM.

The compound `CC(C)Cn1cc(-c2ccccc2)c2ccc(C(=O)N3CCNC(=O)C3(C)C)nc21` [Example 49, 4-(1-isobutyl-3-phenyl-pyrrolo[2,3-b]pyridine-6-carbonyl)-3,3-dimethyl-piperazin-2-one] came in with a melting point of 175 to 178 °C. For the same compound, the IC50 in data set [1] was 0.02 to 10 µM.

Take `CC(C)Cn1cc(-c2ccc(C(F)(F)F)cc2)c2ccc(C(=O)N3CCNC(=O)C3(C)C)nc21` [Example 55, 4-[1-isobutyl-3-[4-(trifluoromethyl)phenyl]pyrrolo[2,3-b]pyridine-6-carbonyl]-3,3-dimethyl-piperazin-2-one]: the melting point was in the range of 216 to 218 °C. In addition, in data set [1], the IC50 lay within 0.02 to 10 µM.

`CC(C)Cn1cc(N2CCCCC2)c2ccc(C(=O)N3CCNC(=O)C3(C)C)nc21` [Example 82, 4-(1-isobutyl-3-(piperidin-1-yl)-1H-pyrrolo[2,3-b]pyridine-6-carbonyl)-3,3-dimethylpiperazin-2-one] had a melting point of 233 to 237 °C. The IC50 in data set [1] lay within 0.02 to 10 µM.

With `O=C(c1cc2c(cn1)c(-c1ccc(Cl)c(F)c1)nn2CC(F)(F)F)N1CC2CCC(C1)O2` [Example 90, (8-oxa-3-azabicyclo[3.2.1]octan-3-yl)(3-(4-chloro-3-fluorophenyl)-1-(2,2,2-trifluoroethyl)-1H-pyrazolo[4,3-c]pyridin-6-yl)methanone], the melting point was in the range of 198 to 200 °C. Besides, the IC50 in data set [1] is over 10 µM.

`COc1cc(-n2nc(C(C)(C)C)c3nc(C(=O)N4CCN(c5cc(C)c(C(=O)O)c(C)n5)CC4(C)C)ccc32)ccc1Cl` [Example 60, 6-(4-(3-(tert-butyl)-1-(4-chloro-3-methoxyphenyl)-1H-pyrazolo[4,3-b]pyridine-5-carbonyl)-3,3-dimethylpiperazin-1-yl)-2,4-dimethylnicotinic acid] registered a melting point of 127 to 139 °C. Moreover, the 50% inhibitory concentration (IC50) in data set [1] was over 10 µM.

In turn, `COc1ccc(-c2cn(CC(C)C)c3nc(C(=O)N4CCNC(=O)C4(C)C)ccc23)cc1` [Example 111, 4-(1-isobutyl-3-(4-methoxyphenyl)-1H-pyrrolo[2,3-b]pyridine-6-carbonyl)-3,3-dimethylpiperazin-2-one] returned a melting point of 195 to 200 °C. In data set [1], the IC50 is 0.02 to 10 µM.

As to `CC(C)Cn1cc(-c2ccncc2)c2ccc(C(=O)N3CCNC(=O)C3(C)C)nc21` [Example 37, 4-(1-isobutyl-3-(pyridin-4-yl)-1H-pyrrolo[2,3-b]pyridine-6-carbonyl)-3,3-dimethylpiperazin-2-one], the melting point lay in the range of 200 to 210 °C. The IC50 in data set [1] was over 10 µM.

Regarding `O=C(c1cc2c(cn1)c(-c1ccc(Cl)c(F)c1)nn2CC(F)(F)F)N1CCCOCC1` [Example 89, (3-(4-chloro-3-fluorophenyl)-1-(2,2,2-trifluoroethyl)-1H-pyrazolo[4,3-c]pyridin-6-yl)(1,4-oxazepan-4-yl)methanone], the melting point lay within 84 to 88 °C. The IC50 in data set [1] is over 10 µM.

For `CC(C)Cn1cc(-c2cnn(C)c2)c2ccc(C(=O)N3CCNC(=O)C3(C)C)nc21` [Example 44, 4-(1-isobutyl-3-(1-methyl-1H-pyrazol-4-yl)-1H-pyrrolo[2,3-b]pyridine-6-carbonyl)-3,3-dimethylpiperazin-2-one], the melting point is over 250 °C. For the same compound, in data set [1], the IC50 is over 10 µM.

In turn, `CC(C)Cc1nn(-c2ccc(C(F)(F)F)nc2)c2ccc(C(=O)N3CCNC(=O)C3(C)C)nc12` [Example 66, 4-(3-isobutyl-1-(6-(trifluoromethyl)pyridin-3-yl)-1H-pyrazolo[4,3-b]pyridine-5-carbonyl)-3,3-dimethylpiperazin-2-one] had a melting point of 185 to 190 °C. The IC50 in data set [1] is over 10 µM.

Compound `CC(C)Cn1cc(-c2cccc(OC(F)(F)F)c2)c2ccc(C(=O)N3CCNC(=O)C3(C)C)nc21` [Example 57, 4-[1-isobutyl-3-[3-(trifluoromethoxy)phenyl]pyrrolo[2,3-b]pyridine-6-carbonyl]-3,3-dimethyl-piperazin-2-one] displayed a melting point of 202 to 204 °C. Further, in data set [1], the IC50 lay within 0.02 to 10 µM.

For the compound `CC(C)Cn1cc(-c2cncnc2)c2ccc(C(=O)N3CCNC(=O)C3(C)C)nc21` [Example 36, 4-(1-isobutyl-3-(pyrimidin-5-yl)-1H-pyrrolo[2,3-b]pyridine-6-carbonyl)-3,3-dimethylpiperazin-2-one], the melting point was 185 to 190 °C. Also, in data set [1], the IC50 was over 10 µM.

`COc1ccc(-n2nc(CC(C)C)c3nc(C(=O)N4CCNC(=O)C4(C)C)ccc32)cn1` [Example 92, 4-(3-isobutyl-1-(6-methoxypyridin-3-yl)-1H-pyrazolo[4,3-b]pyridine-5-carbonyl)-3,3-dimethylpiperazin-2-one] gave a melting point of 189 to 192 °C. Besides, the IC50 in data set [1] is over 10 µM.

With `CC(C)Cn1cc(-c2ccc(F)cc2)c2ccc(C(=O)N3CCNC(=O)C3(C)C)nc21` [Example 56, 4-[1-isobutyl-3-[4-fluorophenyl]pyrrolo[2,3-b]pyridine-6-carbonyl]-3,3-dimethyl-piperazin-2-one], the melting point fell in the range of 192 to 194 °C. Further, the IC50 in data set [1] fell in the range of 0.02 to 10 µM.

The values are drawn from patent US20240066027A1 (DOMAIN THERAPEUTICS, priority 2020, published 2024).
